Laboratory results as given in US20060204993A1, “Methods and compositions for modulating CHK2 pathways and methods for screening for same” (priority 2005, published 2006).
Residues, ends and D or L forms follow the SMILES beside them. *: point of attachment. Cbz = O=C(OCc1ccccc1)*; CH2F = FC*

Key:
[1] = tested on: DLD1-Chk2 clones (#17 and #22); assay: Cell cycle profile (DNA content by flow cytometry) after tetracycline induction of Chk2; type: cell-based, human
DLD1-Chk2 cells = assay: Apoptosis and mitosis markers (Annexin-V, Pancaspase, phospho-Histone H3) and Z-VAD rescue in tet-induced cells; type: cell-based, human; conditions: DLD1-tet-Chk2#17 cells, +tet six days
Experimental: FIG. 2A is a graph showing the DNA contents of cells as measured by flow cytometry (upper panel) and the percentages of Annexin-V-positive cells and Pancaspase-positive cells determined by flow cytometric analysis (bottom panels). FIG. 2B is a photograph of fluorescent microscopy showing DLD1-tet-Chk2# 17 cells cultured in the presence or absence of tetracycline following staining with DePsipher Dye (Trevigen) and monitoring the intensity of the monomer ([…]) and aggregates ([…]) of DePsipher. FIG. 2C is a photograph of immunoblots showing DLD1-tet-Chk2 #17 cell lysates following tetracycline treatment. Lysates were prepared and subjected to immunoblotting with the antibodies indicated on the left. FIG. 2D is a series of graphs of flow cytometric analysis showing the DNA content, caspase activity and percentages of DLD1-tet-Chk2#17 cells undergoing apoptosis following treated with Z-VAD- or mock-treated (None) and cultured in the presence (+tet) or absence (−tet) of tetracycline for six days.
To investigate the effect of Chk2 expression on cell cycle progression, the cell cycle profiles of DLD1-Chk2 clones (#17 and #22) were analyzed after Chk2 induction by addition of tetracycline. […]

| Structure (SMILES) | cell population with G2/M DNA content ([1]; uninduced 20%) | cell population with sub-G1 DNA content ([1]; uninduced ~4%) [%] | cell population with S DNA content ([1]; uninduced ~25%) [%] | cell population with G1 DNA content ([1]; uninduced ~52%) [%] | rescue of Chk2-induced cell death (DLD1-Chk2 cells) |
| --- | --- | --- | --- | --- | --- |
| CN(C)[C@@H]1C(O)=C(C(N)=O)C(=O)[C@@]2(O)C(O)=C3C(=O)c4c(O)cccc4[C@@](C)(O)[C@H]3C[C@@H]12 [tetracycline] | 30-35% | ~40 | ~9 | ~25 | – |
| CC(NC(=O)C(NC(=O)OCc1ccccc1)C(C)C)C(=O)NC(CC(=O)O)C(=O)CF (stereo not drawn) [Z-VAD] (Cbz-Val-Ala-Asp-CH2F; configuration not given here) | – | – | – | – | partially rescued |
